Test results reported in PubChem BioAssay AID248 (DTP/NCI, 2004).
Several values for one entry are separate records, joined by “and”; a condition that tells them apart may be missing. Equal values may be shown once. Toxic doses and inconclusive results are not listed. No stated cut-off is given here; in the data, active means T/C of 150% or more; inactive means T/C below 125%.

System: L1210 leukemia ip in BDF1 mice, survival T/C
Assay: NCI In Vivo Anticancer Drug Screen. Data for tumor model L1210 Leukemia (intraperitoneal) in B6D2F1 (BDF1) mice
Conditions: endpoint: mean survival time, higher = longer survival
How it was run: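 Survival endpoint. Drug-treated group vs vehicle group, expressed as T divided by C. Tumor passaged by transplantation.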

[1] = dose: 100.0 mg/kg/injection, schedule: Q01DX009 (ip), vehicle: saline with Tween-80
[2] = dose: 200.0 mg/kg/injection, schedule: Q01DX009 (ip), vehicle: saline with Tween-80
[3] = dose: 100.0 mg/kg/injection, schedule: Q04DX003 (ip), vehicle: Klucel (hydroxypropylcellulose) (HPC)
[4] = dose: 200.0 mg/kg/injection, schedule: Q04DX003 (ip), vehicle: Klucel (hydroxypropylcellulose) (HPC)
[5] = dose: 400.0 mg/kg/injection, schedule: Q04DX003 (ip), vehicle: Klucel (hydroxypropylcellulose) (HPC)
[6] = dose: 100.0 mg/kg/injection, schedule: Q04DX003 (ip), vehicle: saline
[7] = dose: 200.0 mg/kg/injection, schedule: Q04DX003 (ip), vehicle: saline
[8] = dose: 400.0 mg/kg/injection, schedule: Q04DX003 (ip), vehicle: saline
[9] = dose: 50.0 mg/kg/injection, schedule: Q01DX009 (ip), vehicle: saline with Tween-80
[10] = dose: 75.0 mg/kg/injection, schedule: Q01DX001 (ip), vehicle: saline
[11] = dose: 150.0 mg/kg/injection, schedule: Q01DX001 (ip), vehicle: saline
[12] = dose: 300.0 mg/kg/injection, schedule: Q01DX001 (ip), vehicle: saline

Measured: T/C

O=C(O)C1C2C=CC(C2)C1C(=O)O (stereo not drawn)
inactive: [1] 97 % of control | [2] 96 % of control | dose: 400.0 mg/kg/injection, schedule: Q01DX009 (ip), vehicle: saline with Tween-80 98 % of control

CS(=O)(=NC(=S)Nc1ccccc1)c1ccccc1 (stereo not drawn)
inactive: dose: 75.0 mg/kg/injection, schedule: Q01DX009 (ip), vehicle: saline 97 % of control | dose: 150.0 mg/kg/injection, schedule: Q01DX009 (ip), vehicle: saline 100 % of control | dose: 300.0 mg/kg/injection, schedule: Q01DX009 (ip), vehicle: saline 100 % of control

Cc1c(C)c([N+](=O)[O-])c(C)c(C)c1[N+](=O)[O-]
inactive: dose: 100.0 mg/kg/injection, schedule: Q01DX009 (ip), vehicle: Klucel (hydroxypropylcellulose) (HPC) 91 % of control | [3] 96 % of control | dose: 200.0 mg/kg/injection, schedule: Q01DX009 (ip), vehicle: Klucel (hydroxypropylcellulose) (HPC) 98 % of control | [4] 100 % of control | dose: 400.0 mg/kg/injection, schedule: Q01DX009 (ip), vehicle: Klucel (hydroxypropylcellulose) (HPC) 93 % of control | [5] 101 % of control

CC(C#N)CC12CCCCC1CC/C(=C\c1ccccc1)C2 (stereo not drawn)
inactive: [3] 92 % of control | [4] 94 % of control | [5] 94 % of control

CC(=N)N
inactive: [6] 114 % of control | [7] 90 % of control | [8] 111 % of control

CCCCC(=O)N/N=C/c1ccc(Cl)c([N+](=O)[O-])c1
inactive: dose: 100.0 mg/kg/injection, schedule: Q01DX001 (ip), vehicle: saline 91 % of control | dose: 200.0 mg/kg/injection, schedule: Q01DX001 (ip), vehicle: saline 89 % of control | dose: 400.0 mg/kg/injection, schedule: Q01DX001 (ip), vehicle: saline 91 % of control

O=[As](O)(O)c1ccc(N=NSc2ncnc3nc[nH]c23)cc1
inactive: dose: 7.5 mg/kg/injection, schedule: Q01DX015 (ip), vehicle: carboxymethylcellulose (CMC) 112 % of control | dose: 15.0 mg/kg/injection, schedule: Q01DX015 (ip), vehicle: carboxymethylcellulose (CMC) 115 % of control

COc1ccc(/C=N/NC(=O)CCCCCCCCC(=O)N/N=C/c2ccc(OC)c(OC)c2)cc1OC
inactive: dose: 25.0 mg/kg/injection, schedule: Q01DX009 (ip), vehicle: saline with Tween-80 98 % of control and 105 % of control | [9] 97 % of control and 101 % of control | dose: 100.0 mg/kg/injection, schedule: Q01DX001 (ip), vehicle: saline with Tween-80 95 % of control | dose: 100.0 mg/kg/injection, schedule: Q04DX002 (ip), vehicle: saline 90 % of control | dose: 100.0 mg/kg/injection, schedule: Q04DX003 (ip), vehicle: saline with Tween-80 94 % of control | dose: 200.0 mg/kg/injection, schedule: Q01DX001 (ip), vehicle: saline with Tween-80 114 % of control | dose: 200.0 mg/kg/injection, schedule: Q04DX002 (ip), vehicle: saline 97 % of control and 90 % of control | dose: 200.0 mg/kg/injection, schedule: Q04DX003 (ip), vehicle: saline with Tween-80 109 % of control | dose: 400.0 mg/kg/injection, schedule: Q04DX002 (ip), vehicle: saline 101 % of control and 103 % of control | dose: 400.0 mg/kg/injection, schedule: Q04DX003 (ip), vehicle: saline with Tween-80 96 % of control

CC(=O)Nc1c(Cl)c(Cl)c2c(c1Cl)Cc1cc(Cl)ccc1-2
inactive: dose: 100.0 mg/kg/injection, schedule: Q01DX009 (ip), vehicle: acetone 90 % of control | [6] 93 % of control | dose: 200.0 mg/kg/injection, schedule: Q01DX009 (ip), vehicle: acetone 93 % of control | [7] 91 % of control | dose: 400.0 mg/kg/injection, schedule: Q01DX009 (ip), vehicle: acetone 95 % of control | [8] 91 % of control

O=C(CBr)Nc1ccc(S(=O)(=O)F)cc1
inactive: dose: 2.34 mg/kg/injection, schedule: Q01DX009 (ip), vehicle: carboxymethylcellulose (CMC) 94 % of control | dose: 4.68 mg/kg/injection, schedule: Q01DX009 (ip), vehicle: carboxymethylcellulose (CMC) 86 % of control | dose: 9.37 mg/kg/injection, schedule: Q01DX009 (ip), vehicle: carboxymethylcellulose (CMC) 86 % of control | dose: 18.75 mg/kg/injection, schedule: Q04DX003 (ip), vehicle: carboxymethylcellulose (CMC) 101 % of control | dose: 75.0 mg/kg/injection, schedule: Q01DX001 (ip), vehicle: carboxymethylcellulose (CMC) 94 % of control

Cc1ccc(S(=O)(=O)N(C)c2ccc(C(=O)O)cc2F)cc1
inactive: [10] 105 % of control | dose: 75.0 mg/kg/injection, schedule: Q04DX003 (ip), vehicle: saline 100 % of control | [11] 90 % of control | dose: 150.0 mg/kg/injection, schedule: Q04DX003 (ip), vehicle: saline 97 % of control | [12] 98 % of control | dose: 300.0 mg/kg/injection, schedule: Q04DX003 (ip), vehicle: saline 97 % of control

CC1(C)COc2cc([N+](=O)[O-])cc(N)c2N1
inactive: [10] 107 % of control | dose: 75.0 mg/kg/injection, schedule: Q04DX003 (ip), vehicle: acetone 110 % of control | [11] 100 % of control | dose: 150.0 mg/kg/injection, schedule: Q04DX003 (ip), vehicle: acetone 95 % of control | [12] 96 % of control | dose: 300.0 mg/kg/injection, schedule: Q04DX003 (ip), vehicle: acetone 101 % of control

CCCN(CCC)C(=O)CCN1CC1
inactive: dose: 5.0 mg/kg/injection, schedule: Q01DX001 (ip), vehicle: carboxymethylcellulose (CMC) 97 % of control | dose: 10.0 mg/kg/injection, schedule: Q01DX001 (ip), vehicle: carboxymethylcellulose (CMC) 100 % of control | dose: 20.0 mg/kg/injection, schedule: Q01DX001 (ip), vehicle: carboxymethylcellulose (CMC) 88 % of control | dose: 40.0 mg/kg/injection, schedule: Q01DX001 (ip), vehicle: carboxymethylcellulose (CMC) 103 % of control

CNCC1C(c2ccc(OC)cc2)C1c1ccc(OC)cc1 (stereo not drawn)
inactive: dose: 12.5 mg/kg/injection, schedule: Q04DX002 (ip), vehicle: Klucel (hydroxypropylcellulose) (HPC) 102 % of control | dose: 25.0 mg/kg/injection, schedule: Q04DX002 (ip), vehicle: Klucel (hydroxypropylcellulose) (HPC) 108 % of control | dose: 50.0 mg/kg/injection, schedule: Q04DX002 (ip), vehicle: Klucel (hydroxypropylcellulose) (HPC) 94 % of control

C=C(Cl)COCC1CO1 (stereo not drawn)
inactive: dose: 44.0 mg/kg/injection, schedule: Q01DX Z (ip), vehicle: saline 92 % of control | dose: 66.0 mg/kg/injection, schedule: Q01DX Z (ip), vehicle: saline 110 % of control | dose: 100.0 mg/kg/injection, schedule: Q01DX Z (ip), vehicle: saline 94 % of control

CCOC(=O)C1(C(=O)OCC)C(C)CC2Nc3ccccc3C(=O)N21 (stereo not drawn)
inactive: dose: 25.0 mg/kg/injection, schedule: Q04DX003 (ip), vehicle: Klucel (hydroxypropylcellulose) (HPC) 87 % of control | dose: 50.0 mg/kg/injection, schedule: Q04DX003 (ip), vehicle: Klucel (hydroxypropylcellulose) (HPC) 91 % of control | [3] 91 % of control

CC(C)(CO)CCl
inactive: [9] 91 % of control | [1] 95 % of control | [2] 88 % of control

O=C(O)CCC(NC(=O)C1CCCCC1C(=O)O)C(=O)O (stereo not drawn)
inactive: [6] 96 % of control | [7] 86 % of control | [8] 87 % of control

[CH3][Sn]([c]1ccccc1)([c]1ccccc1)[c]1ccccc1
inactive: dose: 100.0 mg/kg/injection, schedule: Q04DX002 (ip), vehicle: saline with Tween-80 91 % of control | dose: 200.0 mg/kg/injection, schedule: Q04DX002 (ip), vehicle: saline with Tween-80 95 % of control | dose: 400.0 mg/kg/injection, schedule: Q04DX002 (ip), vehicle: saline with Tween-80 103 % of control
